Data as given in patent publication US8506950B2, “Degradable microcapsules” (ETH Zurich, priority 2008, dated 2013).

Legend:
Type in all cases: cell-based
[1] = target: rLHR (Rattus norvegicus, UniProt P16235); experiment: bLH-dependent luciferase expression in stable rLHR clone 6 (CK04); parameters: Full-length cDNAs encoding the LHRs of rat (r) and bovine (b) origin; expressed in transfected cells; host or cells: CK04: HEK293T stably cotransfected with pLEN-rLHR and pZeoSV2(+), clone 6; settings: clone 6, 500 ng/ml bLH, pCRE-Luc
rLHR, sequence (P16235 27-700): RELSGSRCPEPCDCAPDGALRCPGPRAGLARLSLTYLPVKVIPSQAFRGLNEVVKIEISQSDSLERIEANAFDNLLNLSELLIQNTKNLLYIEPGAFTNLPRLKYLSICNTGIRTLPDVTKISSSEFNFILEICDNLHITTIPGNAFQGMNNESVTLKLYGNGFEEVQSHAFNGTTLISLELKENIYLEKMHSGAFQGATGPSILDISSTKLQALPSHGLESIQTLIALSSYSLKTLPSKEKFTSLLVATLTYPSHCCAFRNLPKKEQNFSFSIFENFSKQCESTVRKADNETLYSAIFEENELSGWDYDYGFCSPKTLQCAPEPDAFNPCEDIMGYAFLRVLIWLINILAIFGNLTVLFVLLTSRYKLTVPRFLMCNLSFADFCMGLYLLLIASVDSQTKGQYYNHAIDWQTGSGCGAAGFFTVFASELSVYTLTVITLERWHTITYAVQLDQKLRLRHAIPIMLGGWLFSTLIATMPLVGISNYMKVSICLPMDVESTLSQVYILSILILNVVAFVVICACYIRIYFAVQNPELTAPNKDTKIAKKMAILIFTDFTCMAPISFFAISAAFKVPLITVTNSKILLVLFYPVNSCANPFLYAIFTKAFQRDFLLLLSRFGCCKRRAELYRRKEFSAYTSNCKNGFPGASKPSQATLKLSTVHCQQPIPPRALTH
Experimental: HEK293T cells were cotransfected with pLEN-LHR and pZeoSV2. After clonal expansion several single clones were transiently transfected with pCRE-Luc and screened for the functional expression of rLHR by their ability to respond to bLH. […] (□) no bLH; (▪) 500 ng/ml bLH. Luciferase expression was expressed as relative light units (RLU).
Functional expression of LHRs on the cell surface results in the stimulation of PKA and an increase of intracellular cAMP in response to bLH. It was evaluated whether the activated LHR-signaling may induce a PKA-responsive promoter. […] 24 hours post-transfection the cells were induced by bLH and the SEAP expression was determined over time. […] In comparing rLHR- and bLHR-expressing cells a 3-fold increase in maximal SEAP expression in response to bLH of the rLHR over the bLHR was detected. […]
The intracellular cAMP production of cells was quantified using the cAMP Fluorescence Polarization (FP) Biotrak Immunoassay System (GE Healthcare Bio-Sciences GmbH, Otelfingen, Switzerland, Cat No. RPN3595) according to the manufacturer's protocol. The expression of firefly luciferase was determined with the Tropix Luciferase Assay Kit (Applied Biosystems, Bedford, USA, Cat No. BC100L). […] Enhanced YFP-expression was detected by fluorescence microscopy (Leica Microsystems, Wetzlar, Germany)

[2] = target: T1, bovine luteinizing hormone receptor (bLHR) (Bos taurus, UniProt Q28005); experiment: Intracellular cAMP in HEK293T cells transiently expressing bLHR, induced by bLH; settings: 500 ng/ml bLH, 1 h post-induction, bLHR expressed, vs non-induced cells
T1 construct: Full-length cDNAs encoding the LHRs of rat (r) and bovine (b) origin; expressed in transfected cells; host or cells: HEK293T, transient transfection with pcDNA3.1-bLHR
T1 sequence (Q28005 27-701): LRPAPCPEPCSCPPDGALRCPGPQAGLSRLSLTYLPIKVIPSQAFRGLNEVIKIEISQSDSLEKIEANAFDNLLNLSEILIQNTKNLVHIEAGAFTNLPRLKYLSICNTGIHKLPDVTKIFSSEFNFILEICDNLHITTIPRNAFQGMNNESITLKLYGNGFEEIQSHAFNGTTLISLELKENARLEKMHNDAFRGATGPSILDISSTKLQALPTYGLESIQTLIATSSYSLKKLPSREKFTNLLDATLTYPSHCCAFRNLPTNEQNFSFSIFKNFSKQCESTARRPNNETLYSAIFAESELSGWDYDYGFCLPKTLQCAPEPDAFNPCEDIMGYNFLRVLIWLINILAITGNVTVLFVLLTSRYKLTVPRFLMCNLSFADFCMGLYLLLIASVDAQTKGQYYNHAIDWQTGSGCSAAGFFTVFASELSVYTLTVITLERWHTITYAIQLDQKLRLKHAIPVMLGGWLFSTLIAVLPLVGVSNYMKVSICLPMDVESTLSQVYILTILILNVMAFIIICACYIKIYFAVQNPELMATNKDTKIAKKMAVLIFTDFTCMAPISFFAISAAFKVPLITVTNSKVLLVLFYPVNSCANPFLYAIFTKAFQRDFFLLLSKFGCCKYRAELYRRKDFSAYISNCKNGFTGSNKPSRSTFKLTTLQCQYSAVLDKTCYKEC
Experimental: (§1) HEK293T cells were transiently transfected for constitutive bLHR or rLHR expression. 48 hours post-transfection the cells were induced by the addition of 500 ng/ml bLH. The intracellular cAMP-levels were determined 1 h post-induction. […] (□) no bLH, (▪) 500 ng/mL bLH.
(§2) Full-length cDNAs encoding the LHRs of rat (r) and bovine (b) origin were cloned under control of the strong constitutive human cytomegalovirus promoter (PCMV) as previously described [Kawate N, Tamada H, Inaba T, Sawada T, Journal of Reproduction and Development 2002; 48:8; Ulaner G A, Chuang J, Lin W, Woodbury D, Myers R V, Moyle W R, J Endocrinol 1999; 163:289-97]. The expression vectors were transiently transfected into HEK293T cells. The functionality of the expressed LHRs was determined 48 hours post-transfection by assaying the intracellular cAMP increase in response to the presence of bLH (FIG. 7). […] However, when the rLHR was expressed the detected cAMP-level increased to 29-fold level of the non-induced cells. […]
(§3) The intracellular cAMP production of cells was quantified using the cAMP Fluorescence Polarization (FP) Biotrak Immunoassay System (GE Healthcare Bio-Sciences GmbH, Otelfingen, Switzerland, Cat No. RPN3595) according to the manufacturer's protocol. The expression of firefly luciferase was determined with the Tropix Luciferase Assay Kit (Applied Biosystems, Bedford, USA, Cat No. BC100L). […]

[3] = target: T2, rat luteinizing hormone receptor (rLHR) (Rattus norvegicus, UniProt P16235); experiment: Intracellular cAMP in HEK293T cells transiently expressing rLHR, induced by bLH; settings: 500 ng/ml bLH, 1 h post-induction, rLHR expressed, vs non-induced cells
T2 construct: Full-length cDNAs encoding the LHRs of rat (r) and bovine (b) origin; expressed in transfected cells; host or cells: HEK293T, transient transfection with pLEN-rLHR
T2 sequence (P16235 27-700): as the sequence (P16235 27-700) above
Experimental: as §1, §2, §3

induction of luciferase expression in response to bLH [1]: 17.0±0.2 fold
increase in intracellular cAMP [2]: 12 fold
increase in intracellular cAMP [3]: 29 fold
Substance: bovine luteinizing hormone [bLH]
